Ki data for 2 compounds are collected here from BindingDB's records for doi:10.7270/Q2G73C4V (Nmmlsc, 2010).

This assay deals with T1, Regulator of G-protein signaling 8 (Homo sapiens, UniProt P57771).
T1 sequence (P57771 whole entry): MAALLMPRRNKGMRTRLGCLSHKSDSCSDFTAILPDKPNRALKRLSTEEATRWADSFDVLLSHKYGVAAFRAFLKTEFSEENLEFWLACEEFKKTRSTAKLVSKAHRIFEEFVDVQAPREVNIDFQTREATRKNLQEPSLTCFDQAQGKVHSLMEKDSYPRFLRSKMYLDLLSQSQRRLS
Description: small molecules altering RGS8 binding of Galphao – biochemical, multiplex bead flow cytometry, SAR compounds, SAR follow-up (AID 2307).

Regarding `NS(=O)(=O)c1ccc(N=NCc2ccc(O)c(O)c2O)c([N+](=O)[O-])c1` [4-[[(E)-(2,3-dihydroxy-4-oxo-1-cyclohexa-2,5-dienylidene)methyl]hydrazo]-3-nitrobenzenesulfonamide], the inhibition constant Ki is 20 nM.
With `O=C(COc1ccccc1C(=O)NN=Cc1ccc(O)c(O)c1)NN=Cc1ccc(O)c(O)c1` [N''-[(Z)-(3-hydroxy-4-oxo-1-cyclohexa-2,5-dienylidene)methyl]-2-[2-[[(Z)-(3-hydroxy-4-oxo-1-cyclohexa-2,5-dienylidene)methyl]hydrazo]-2-oxoethoxy]benzohydrazide] the figure was 100 nM.
